# Where two headings read alike, the source gives them in different places.
# Columns and labels:
# HCV NS5A replicon GT-lb = experiment: HCV NS5A replicon anti-viral activity (EC50), GT-1b; assay type: cell-based; conditions: Hepatitis C virus, genotype 1a / genotype 6a, read-out: Inhibitory activity against various HCV-NS5A subtypes(EC50, GT-1a to GT-6a) GT-lb
# From the text: (§1) The autonomous replication level of HCV in liver cells in vitro is very low, and the only animal that can be infected by HCV is chimpanzee, therefore there is no appropriate animal model currently available for preclinical pharmacodynamic study. Some researchers have transplanted human liver tissue infected with HCV in vitro into immune deficient mice to establish an in vivo mice model, but these mice are hard to raise and the model is unstable and short of normal immunologic reaction. Moreover, the model has significant difference with the pathogenic process of hepatitis C, therefore, it has not been used for animal model to assess the action of anti-HCV medicine yet. The progress of the development of anti-viral drugs for the treatment of HCV infection had been very slow because the pathogenic mechanism and life cycle of HCV were unclear before 1999 due to the lack of cell culture system for effective multiplication of HCV. But researchers managed to achieve a breakthrough in 1999 after numerous attempts. An effective cell culture model-replicon system in which HCV is capable of autonomous replication in transfected human hepatic carcinoma cell line Huh-7 had been established in that year on the basis of subgenomic HCV RNA built with genetic engineering.
# (§2) The above-mentioned cell culture model-replicon system which has been widely accepted in the industry is used in this invention for ex vivo experiments and subsequent assessment of drugs based on the experiment results.
# (§3) The therapeutic effect of the compounds of this invention on HCV infection can be preliminarily assessed through the following preclinical in vitro inhibitory action test and can be further confirmed in clinical trials. Other methods used in the invention are also quite familiar to professionals in this field with ordinary technical knowledge. Method for testing the anti-viral activity(EC50) in HCV NS5A replicon system: • The viral replication level in infected cells was determined by testing Renilla luciferase with the newly established dual-reporter gene replicon system. There was a good linear relation between the expression level of the reporter gene and the HCV RNA replication level and viral protein expression level. The anti-viral activity was determined for 3 replicates in 3 replicate cells at five(5) 1:2 diluted concentration gradients, with 1 to 2 positive controls. The EC50 of the compounds was calculated in the end.
# (§4) The compounds of the invention, or their stereoisomers, tautomers, esterified or amidated prodrugs, or pharmaceutically acceptable salts and mixtures have been subjected to test to determined their therapeutic effects in the treatment of HCV infection. […] Moreover, the results of 6a-6ep(Ia), 6fa-6gq(Ib) and reference compounds Ref-1(BMS-790052), Ref-2(GS5885), Ref-3 in HCV-NS5 inhibition test reveal that the cyclopentanyl/hexamethyleneamino radical containing linear polypeptide compounds 6a-6ep, 6fa-6gq and reference compounds Ref-1, Ref-2, Ref-3 have good HCV inhibitory results. […] The replicons GT-1a, GT-lb, GT-2a, GT-3a, GT-4a, GT-5a and GT-6a used for the test are routine replicons commercially available in this field. Table 1: HCV NS5A replicon inhibitory activity test results of compounds (6a-6gq) of the invention
# HCV NS5A replicon GT-3a = experiment: HCV NS5A replicon anti-viral activity (EC50), GT-3a; assay type: cell-based; conditions: Hepatitis C virus, genotype 1a / genotype 3a / genotype 6a, read-out: Inhibitory activity against various HCV-NS5A subtypes(EC50, GT-1a to GT-6a) GT-3a
# From the text: as §1, §2, §3, §4
# HCV NS5A replicon GT-2a = experiment: HCV NS5A replicon anti-viral activity (EC50), GT-2a; assay type: cell-based; conditions: Hepatitis C virus, genotype 1a / genotype 2a / genotype 6a; GT-2a replicon; read-out: Inhibitory activity against various HCV-NS5A subtypes(EC50, GT-1a to GT-6a) GT-2a
# From the text: as §1, §2, §3, §4
# HCV NS5A replicon GT-5a = experiment: HCV NS5A replicon anti-viral activity (EC50), GT-5a; assay type: cell-based; conditions: Hepatitis C virus, genotype 1a / genotype 5a / genotype 6a, read-out: Inhibitory activity against various HCV-NS5A subtypes(EC50, GT-1a to GT-6a) GT-5a
# From the text: as §1, §2, §3, §4
# HCV NS5A replicon GT-1a = experiment: HCV NS5A replicon anti-viral activity (EC50), dual-reporter Renilla luciferase, GT-1a; assay type: cell-based; conditions: for EC50: Hepatitis C virus; for inhibitory activity compared with Ref-1(BMS-790052), Ref-2(GS5885), Ref-3 and Ref-4 (in words): comparison drawn from Table 2
# From the text: as §1, §2, §3, §4
# ICR mice = experiment: MTD screening test (acute toxicity study) in mice; assay type: in vivo; conditions: high dosage
# Description: Method: ICR mice, 10 mice/group, 5 males and 5 females. A treatment group and a control group are set up for every drugs, respectively, mice in control group were administered 0.5%CMC-Na solution, i.e. the solvent of the drugs. The mice were fasted overnight but granted free access to water before the administration. Their body weight before the administration of drugs is in the range of 18.8∼24.1 g. The mice were administered the drugs by peroral lavage at the dosage of 40 mL/kg. The mice were closely observed 3 hours after the administration and twice a day afterwards for 7 days, one in the morning and one in the afternoon. At the end of the observation period, 2 mice (1 male and 1 female) were randomly selected from each treatment group and subjected to histopathological examination of part of their tissues and organs.
# Two third of the novel heterocyclic compounds that have good HCV inhibiting activity (EC50: <0.05nM) after administration of the drugs by lavage at the dosage of 2000mg/kg yield a survival rate of 100%. […] Two third of the novel compounds that show high HCV inhibiting activity have very low overall toxicity (survive rate of mice after administration: 100%). It is believed that these compounds are generally nontoxic.
# HCV NS5A replicon GT-6a = experiment: HCV NS5A replicon anti-viral activity (EC50), GT-6a; assay type: cell-based; conditions: Hepatitis C virus, genotype 1a / genotype 6a; GT-6a replicon; read-out: Inhibitory activity against various HCV-NS5A subtypes(EC50, GT-1a to GT-6a) GT-6a
# From the text: as §1, §2, §3, §4
# HCV NS5A replicon GT-4a = experiment: HCV NS5A replicon anti-viral activity (EC50), GT-4a; assay type: cell-based; conditions: Hepatitis C virus, genotype 1a / genotype 4a / genotype 6a, read-out: Inhibitory activity against various HCV-NS5A subtypes(EC50, GT-1a to GT-6a) GT-4a
# From the text: as §1, §2, §3, §4
# [1] = GT1A, GT-1a replicon, read-out: NS5A Inhibitory Activity (EC50 of GT-1a subtype inhibition)
# [2] = genotype 1a / genotype 6a, read-out: Inhibitory activity against various HCV-NS5A subtypes(EC50, GT-1a to GT-6a) GT-1a
SMILES,EC50 (HCV NS5A replicon GT-lb) [nM],EC50 (HCV NS5A replicon GT-3a) [nM],EC50 (HCV NS5A replicon GT-2a) [nM],EC50 (HCV NS5A replicon GT-5a) [nM],EC50 (HCV NS5A replicon GT-1a; [1]) [nM],EC50 (HCV NS5A replicon GT-1a; [2]) [nM],"inhibitory activity compared with Ref-1(BMS-790052), Ref-2(GS5885), Ref-3 and Ref-4 (in words) (HCV NS5A replicon GT-1a)",toxicity (in words) (ICR mice),EC50 (HCV NS5A replicon GT-6a) [nM],EC50 (HCV NS5A replicon GT-4a) [nM]
COC(=O)N[C@H](C(=O)N1CCC[C@H]1c1nc(-c2ccc(-c3ccc(-c4cnc([C@@H]5C=CCN5C(=O)[C@H](NC(=O)OC)c5ccccc5)[nH]4)cc3)cc2)c[nH]1)C(C)C [6dy],0.014,0.015,0.006,0.023,0.001 to 0.999,0.011,significantly superior,low toxicity at high dosage,0.024,0.008
COC(=O)N[C@H](C(=O)N1CC=C[C@H]1c1ncc(-c2ccc(-c3ccc(-c4c[nH]c([C@@H]5CCCN5C(=O)[C@@H](NC(=O)OC)C(C)C)n4)cc3)cc2)[nH]1)C(C)C [6ba],0.012,0.173,0.016,0.023,0.001 to 0.999,0.039,–,–,0.221,0.01
COC(=O)N[C@H](C(=O)N1CC=C[C@H]1c1ncc(-c2ccc(-c3cc4sc(-c5cnc([C@@H]6CCCN6C(=O)[C@H](NC(=O)OC)c6ccccc6)[nH]5)cc4s3)cc2)[nH]1)C(C)C [6fd],0.005,0.026,0.007,0.013,0.001 to 0.999,0.02,–,–,0.055,0.005
COC(=O)N[C@@H](C(=O)N1CC=C[C@H]1c1ncc(-c2ccc(-c3csc4c(-c5c[nH]c([C@@H]6CCCN6C(=O)[C@H](NC(=O)OC)c6ccccc6)n5)csc34)cc2)[nH]1)c1ccccc1 [6fm],–,–,–,–,0.001 to 0.999,–,–,low toxicity at high dosage,–,–
"COC(=O)N[C@H](C(=O)N1CCC[C@H]1c1nc(-c2ccc(-c3ccc(-c4cnc([C@@H]5CCCN5C(=O)[C@@H](NC(=O)OC)C(C)C)[nH]4)cc3)cc2)c[nH]1)C(C)C [Ref-1, BMS-790052, reference compound]",0.021,0.218,0.029,0.036,0.001 to 0.999,0.052,–,–,0.118,0.011
COC(=O)N[C@H](C(=O)N1CCC[C@H]1c1ncc(-c2ccc(-c3cc4sc(-c5cnc([C@@H]6C=CCN6C(=O)[C@H](NC(=O)OC)c6ccccc6)[nH]5)cc4s3)cc2)[nH]1)C(C)C [6fg],0.013,0.024,0.008,0.029,0.001 to 0.999,0.009,significantly superior,–,0.023,0.012
COC(=O)N[C@H](C(=O)N1CC=C[C@H]1c1ncc(-c2ccc(-c3csc4c(-c5ccc6nc([C@@H]7CCCN7C(=O)[C@@H](NC(=O)OC)C(C)C)[nH]c6c5)csc34)cc2)[nH]1)C(C)C [6gd],–,–,–,–,–,0.004,significantly superior,–,–,–
COC(=O)NC(C(=O)N1CC=C[C@H]1c1ncc(-c2ccc(-c3cc4sc(-c5cnc([C@@H]6CCCN6C(=O)[C@@H](NC(=O)OC)C(C)C)[nH]5)cc4s3)cc2)[nH]1)c1ccccc1 (stereo partly shown) [6cb],–,–,–,–,> 50,–,–,–,–,–
COC(=O)N[C@H](C(=O)N1CC=C[C@H]1c1ncc(-c2ccc(-c3ccc4[nH]c([C@@H]5CC6(CC6)CN5C(=O)[C@@H](NC(=O)OC)C(C)C)nc4c3)cc2)[nH]1)C(C)C [6eb],–,–,–,–,0.001 to 0.999,–,–,–,–,–
